Results reported in patent publication US10770169B2, “Method of providing a treatment to a subject based on a dynamic pathway map” (THE REGENTS OF THE UNIVERSITY OF CALIFORNIA, priority 2010, dated 2020).
Entries after “also recorded” stand apart in the source; their conditions may differ.

Columns and labels:
Type in all cases: cell-based, human
[1] = tested on: panel of 55 breast cancer cell lines; experiment: Cell growth inhibition assay (Cell Titer Glo, 72 h, 9 doses; GI50, TGI, LC50); details: value is the negative log10 of mol/L
[2] = tested on: luminal, basal, claudin-low and ERBB2AMP breast cancer cell lines; experiment: Associations of clinically relevant subtypes and response (non-parametric ANOVA or t-test on GI50 ranks)
Outline: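 GI50 values were compared between cell-line subtype groups by non-parametric ANOVA or t-test on ranks. P-values from three test sets were combined and FDR-corrected. Significant three-group effects were followed by post-hoc comparison of each group against all others, and FDR p<0.20 counted as significant.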

[3] = tested on: breast cancer cell lines with aberrant vs normal copy number; experiment: Association of recurrent copy number changes and response (t-test on GI50); details: FDR p<0.2
Text: We used a t-test to assess the association between recurrent copy number changes (at 8q24 (MYC), 11q13 (CCND1), 20q13 (STK15/AURKA)) and drug sensitivity. We combined into a single group cell lines with low or no amplification and compared them to cell lines with high amplification. […] Cell lines for which the GI50 was equal to the maximum concentration tested were omitted from analysis. We omitted compounds where any group had fewer than five samples.

## CCn1cc(-c2ccnc3[nH]c(-c4cccc(CN(C)C)c4)cc23)c(-c2ccc(NC(=O)N(C)C)cc2)n1 [GSK1070916]
[1]; 600MPE cell line, censored GI50 values
  GI50: 5.10
[1]; AU565 cell line, censored GI50 values
  GI50: 5.52
[1]; BT474 cell line, censored GI50 values
  GI50: 5.19
[1]; BT483 cell line, censored GI50 values
  GI50: 5.35
[1]; CAMA1 cell line, censored GI50 values
  GI50: 5.05
[1]; HCC38 cell line, censored GI50 values
  GI50: 6.44
[1]; HCC70 cell line, censored GI50 values
  GI50: 6.59
[1]; HCC202 cell line, censored GI50 values
  GI50: 6.03
[1]; HCC1143 cell line, censored GI50 values
  GI50: 5.51
[1]; HCC1187 cell line, censored GI50 values
  GI50: 7.95
[1]; HCC1395 cell line, censored GI50 values
  GI50: 6.24
[1]; HCC1419 cell line, censored GI50 values
  GI50: 5.18
[1]; HCC1428 cell line, censored GI50 values
  GI50: 5.19
[1]; HCC1500 cell line, censored GI50 values
  GI50: 5.19
[1]; HCC1806 cell line, censored GI50 values
  GI50: 5.16
[1]; HCC1937 cell line, censored GI50 values
  GI50: 5.42
[1]; HCC1954 cell line, censored GI50 values
  GI50: 5.56
[1]; HCC2185 cell line, censored GI50 values
  GI50: 6.34
[1]; HCC3153 cell line, censored GI50 values
  GI50: 4.95
[1]; MCF7 cell line, censored GI50 values
  GI50: 5.06
[1]; MDAMB134VI cell line, censored GI50 values
  GI50: 5.57
[1]; MDAMB157 cell line, censored GI50 values
  GI50: 5.95
[1]; MDAMB175VII cell line, censored GI50 values
  GI50: 5.07
[1]; MDAMB231 cell line, censored GI50 values
  GI50: 5.78
[1]; MDAMB361 cell line, censored GI50 values
  GI50: 5.19
[1]; MDAMB415 cell line, censored GI50 values
  GI50: 5.76
[1]; MDAMB436 cell line, censored GI50 values
  GI50: 7.01
[1]; MDAMB453 cell line, censored GI50 values
  GI50: 5.51
[1]; MDAMB468 cell line, censored GI50 values
  GI50: 7.89
[1]; SKBR3 cell line, censored GI50 values
  GI50: 5.29
[1]; SUM149PT cell line, censored GI50 values
  GI50: 5.48
[1]; SUM159PT cell line, censored GI50 values
  GI50: 5.77
[1]; SUM185PE cell line, censored GI50 values
  GI50: 5.94
[1]; SUM1315MO2 cell line, censored GI50 values
  GI50: 5.89
[1]; cell line 600MPE
  GI50: 5.10
[1]; cell line AU565
  GI50: 5.52
[1]; cell line BT474
  GI50: 5.19
[1]; cell line BT483
  GI50: 5.35
[1]; cell line CAMA1
  GI50: 5.05
[1]; cell line HCC38
  GI50: 6.44
[1]; cell line HCC70
  GI50: 6.59
[1]; cell line HCC202
  GI50: 6.03
[1]; cell line HCC1143
  GI50: 5.51
[1]; cell line HCC1187
  GI50: 7.95
[1]; cell line HCC1395
  GI50: 6.24
[1]; cell line HCC1419
  GI50: 5.18
[1]; cell line HCC1428
  GI50: 5.19
[1]; cell line HCC1500
  GI50: 5.19
[1]; cell line HCC1806
  GI50: 5.16
[1]; cell line HCC1937
  GI50: 5.42
[1]; cell line HCC1954
  GI50: 5.56
[1]; cell line HCC2185
  GI50: 6.34
[1]; cell line HCC3153
  GI50: 4.95
[1]; cell line MCF7
  GI50: 5.06
[1]; cell line MDAMB134V
  GI50: 5.57
[1]; cell line MDAMB157
  GI50: 5.95
[1]; cell line MDAMB175V
  GI50: 5.07
[1]; cell line MDAMB231
  GI50: 5.78
[1]; cell line MDAMB361
  GI50: 5.19
[1]; cell line MDAMB415
  GI50: 5.76
[1]; cell line MDAMB436
  GI50: 7.01
[1]; cell line MDAMB453
  GI50: 5.51
[1]; cell line MDAMB468
  GI50: 7.89
[1]; cell line SKBR3
  GI50: 5.29
[1]; cell line SUM52PE
  GI50: 6.84
[1]; cell line SUM149PT
  GI50: 5.48
[1]; cell line SUM159PT
  GI50: 5.77
[1]; cell line SUM185PE
  GI50: 5.94
[1]; cell line SUM1315MO
  GI50: 5.89
[1]; cell line UACC812
  GI50: 4.51
[1]; cell line UACC893
  GI50: 5.06
[1]; cell line ZR75B
  GI50: 5.75
[1]; cell line ZR751
  GI50: 4.94
[1]; cell line ZR7530
  GI50: 4.71
[2]; GI50 across subtypes
  subtype-specific response (sensitivity by transcriptional subtype): more active against basal and claudin-low cell lines
[2]; Table 6, most sensitive subtype, FDR p<0.20
  Subtype specificity: Claudin-low
[3]
  association of response with amplification at 11q13 (CCND1): associated with sensitivity; also recorded: associated with response
  association of response with amplification at 20q13 (STK15/AURKA): associated with resistance, rather than sensitivity
